Test results as given in the NIST ThermoML archive (doi:10.1021/je060271a).

Settings: 323.15 K, Liquid, Vibrating tube method

CCCCCCCC(=O)OCC(COC(=O)CCCCCCC)(COC(=O)CCCCCCC)COC(=O)CCCCCCC [pentaerythritol tetraoctanoate]
Settings	mass density [kg/m3]
7680.3 kPa	945.8
7700.7 kPa	945.8
7720.9 kPa	945.7
7748.8 kPa	945.9
7769.4 kPa	945.7
7790.4 kPa	945.9
7811.3 kPa	946
7832.2 kPa	945.9
7857.7 kPa	945.9
7878.8 kPa	945.8
7900.5 kPa	945.9
7922.1 kPa	946
7947.7 kPa	946
7968.9 kPa	945.8
7990.6 kPa	946
8017 kPa	946
8039.8 kPa	946
8061.6 kPa	946.2
8084.3 kPa	946.1
8107.1 kPa	946.1
8134 kPa	946.1
8156.6 kPa	946
8179.4 kPa	946.1
8206.5 kPa	946
8229.4 kPa	946.2
8252.6 kPa	946.2
8275.8 kPa	946.2
8303.6 kPa	946.2
8327.1 kPa	946.2
8355.7 kPa	946.2
8379.5 kPa	946.3
8404.2 kPa	946.3
8428.3 kPa	946.3
8452.5 kPa	946.3
8482 kPa	946.4
8506.8 kPa	946.2
8531.5 kPa	946.4
8560.6 kPa	946.4
8585.3 kPa	946.5
8610.8 kPa	946.4
8640.7 kPa	946.4
8666 kPa	946.4
8691.5 kPa	946.4
8722.7 kPa	946.4
8748.4 kPa	946.5
8774.8 kPa	946.4
8806.4 kPa	946.5
8832.8 kPa	946.4
8859.7 kPa	946.6
8886 kPa	946.5
8918.8 kPa	946.5
8945.9 kPa	946.6
8972.8 kPa	946.7
9006 kPa	946.7
9034.1 kPa	946.6
9062.8 kPa	946.7
9092.9 kPa	946.7
9121.3 kPa	946.8
9155.1 kPa	946.7
9183.5 kPa	946.9
9212.7 kPa	946.8
9247.8 kPa	946.8
9276.8 kPa	946.9
9311.6 kPa	946.9
9341.2 kPa	946.9
9371.1 kPa	946.9
9401 kPa	946.9
9437.9 kPa	946.9
9469.8 kPa	947
9503.2 kPa	946.9
9534 kPa	947.1
9570.9 kPa	946.9
9602.4 kPa	947
9633.9 kPa	947
9665.6 kPa	947.2
9704.2 kPa	947.1
9736 kPa	947.1
9774.4 kPa	947.2
9806.9 kPa	947.2
9834 kPa	947.1
9860.5 kPa	947.3
9901 kPa	947.3
9949.2 kPa	947.4
9984 kPa	947.3
10026 kPa	947.2
10059 kPa	947.3
10090 kPa	947.3
10128 kPa	947.3
10160 kPa	947.4
10192 kPa	947.5
10231 kPa	947.6
10264 kPa	947.5
10297 kPa	947.6
10337 kPa	947.5
10372 kPa	947.6
10405 kPa	947.5
10435 kPa	947.6
10467 kPa	947.6
10494 kPa	947.6
10520 kPa	947.7
10553 kPa	947.7
10580 kPa	947.7
10608 kPa	947.6
10643 kPa	947.8
10672 kPa	947.8
10695 kPa	947.7
10719 kPa	947.8
10739 kPa	947.8
10759 kPa	947.6
10779 kPa	947.8
10802 kPa	947.8
10822 kPa	947.8
10847 kPa	947.8
10867 kPa	947.8
10887 kPa	948
10911 kPa	947.9
10932 kPa	947.8
10948 kPa	947.9
10977 kPa	947.9
10997 kPa	948
11019 kPa	948.1
11040 kPa	948.1
11065 kPa	948
11086 kPa	948
11111 kPa	948
11132 kPa	948.1
11153 kPa	948.1
11175 kPa	948.1
11200 kPa	948.1
11222 kPa	948.1
11248 kPa	948.1
11270 kPa	948.1
11292 kPa	948.1
11319 kPa	948.1
11341 kPa	948.1
11362 kPa	948.1
11384 kPa	948.3
11411 kPa	948.3
11433 kPa	948.2
11460 kPa	948.2
11483 kPa	948.3
11506 kPa	948.3
11533 kPa	948.3
11555 kPa	948.4
11579 kPa	948.2
11607 kPa	948.3
11626 kPa	948.3
11654 kPa	948.4
11678 kPa	948.2
11701 kPa	948.4
11725 kPa	948.5
11744 kPa	948.5
11768 kPa	948.4
11792 kPa	948.5
11831 kPa	948.4
11855 kPa	948.5
11880 kPa	948.5
11909 kPa	948.5
11935 kPa	948.6
11961 kPa	948.6
11986 kPa	948.6
12010 kPa	948.7
12041 kPa	948.6
12065 kPa	948.7
12095 kPa	948.6
12120 kPa	948.8
12146 kPa	948.6
12176 kPa	948.6
12202 kPa	948.7
12228 kPa	948.6
12255 kPa	948.7
12286 kPa	948.8
12313 kPa	948.8
12339 kPa	948.9
12456 kPa	948.9
12482 kPa	948.9
12510 kPa	948.9
12537 kPa	948.9
12570 kPa	949
12598 kPa	948.9
12626 kPa	949
12660 kPa	949
12688 kPa	948.9
12716 kPa	949
12744 kPa	949
12777 kPa	949
12805 kPa	949.1
12839 kPa	949
12868 kPa	949.1
12897 kPa	949.2
12932 kPa	949.2
12961 kPa	949.2
12990 kPa	949.1
13026 kPa	949.2
13056 kPa	949.3
13080 kPa	949.2
13104 kPa	949.2
13134 kPa	949.3
13170 kPa	949.2
13212 kPa	949.4
13248 kPa	949.4
13279 kPa	949.3
13310 kPa	949.4
13347 kPa	949.3
13378 kPa	949.4
13409 kPa	949.6
13447 kPa	949.6
13479 kPa	949.6
13511 kPa	949.5
13543 kPa	949.5
13581 kPa	949.7
13614 kPa	949.7
13652 kPa	949.6
13685 kPa	949.7
13717 kPa	949.6
13756 kPa	949.7
13790 kPa	949.6
13823 kPa	949.7
13863 kPa	949.7
13897 kPa	949.9
13932 kPa	949.7
13965 kPa	949.8
14007 kPa	949.9
14041 kPa	949.7
14076 kPa	949.9
14118 kPa	950
14152 kPa	949.9
14187 kPa	950
14230 kPa	949.9
14266 kPa	950
14301 kPa	950.1
14345 kPa	950.1
14376 kPa	950.2
14414 kPa	950.2
14452 kPa	950.1
14505 kPa	950.1
14544 kPa	950.2
14573 kPa	950.2
14617 kPa	950.1
14647 kPa	950.2
14671 kPa	950.2
14707 kPa	950.5
14738 kPa	950.3
14780 kPa	950.3
14812 kPa	950.5
14846 kPa	950.5
14877 kPa	950.3
14909 kPa	950.4
14947 kPa	950.5
14979 kPa	950.4
15012 kPa	950.5
15052 kPa	950.5
15085 kPa	950.5
15114 kPa	950.5
15143 kPa	950.5
15167 kPa	950.6
15191 kPa	950.6
15220 kPa	950.7
15246 kPa	950.5
15270 kPa	950.6
15299 kPa	950.6
15324 kPa	950.7
15350 kPa	950.7
15374 kPa	950.8
15404 kPa	950.8
15430 kPa	950.7
15454 kPa	950.8
15485 kPa	950.7
15510 kPa	950.9
15541 kPa	950.8
15567 kPa	950.8
15594 kPa	950.8
15619 kPa	950.8
15650 kPa	950.8
15677 kPa	950.9
15702 kPa	950.9
15734 kPa	950.9
15761 kPa	950.9
15787 kPa	950.9
15818 kPa	951
15845 kPa	951.2
15872 kPa	951
15903 kPa	951.1
15931 kPa	951.1
15954 kPa	951
15980 kPa	951.1
16008 kPa	951.1
16046 kPa	951.2
16073 kPa	951.1
16106 kPa	951.3
16134 kPa	951.1
16161 kPa	951.3
16194 kPa	951.1
16222 kPa	951.3
16245 kPa	951.2
16273 kPa	951.4
